Target: T1, oxytocin receptor (CHO-OTR/NFAT-β-Lactamase cells) (Homo sapiens, UniProt P30559)
T1 construct: expressed in transfected cells; host or cells: CHO-OTR cell line, further transfected with the NFAT-β-lactamase reporter construct
T1 sequence (P30559 1-389): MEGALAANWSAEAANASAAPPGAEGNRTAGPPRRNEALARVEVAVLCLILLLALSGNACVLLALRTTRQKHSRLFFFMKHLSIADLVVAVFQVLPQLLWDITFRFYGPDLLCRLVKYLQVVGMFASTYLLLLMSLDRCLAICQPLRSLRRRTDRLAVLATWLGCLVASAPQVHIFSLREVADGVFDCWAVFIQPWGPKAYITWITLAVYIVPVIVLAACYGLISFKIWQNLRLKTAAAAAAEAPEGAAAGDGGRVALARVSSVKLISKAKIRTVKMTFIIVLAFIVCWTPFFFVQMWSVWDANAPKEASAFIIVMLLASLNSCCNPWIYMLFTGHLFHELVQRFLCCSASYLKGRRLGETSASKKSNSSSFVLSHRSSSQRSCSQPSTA
Assay: Oxytocin Receptor Beta-Lactamase Assay
Type: cell-based
Settings: oxytocin antagonist activity, n=3
Procedure: A suitable assay for determining the oxytocin antagonist activity of a compound is detailed herein below.
Oxytocin Receptor Beta-Lactamase Assay
Cells used are CHO-OTR/NFAT-β-Lactamase. The NFAT-β-lactamase expression construct was transfected into the CHO-OTR cell line and clonal populations were isolated via fluorescence activated cell sorting (FACS). An appropriate clone was selected to develop the assay. […]
Cells grown at 80-90% confluence were harvested and counted. […]
Preparation of 1 ml of 6× Loading Buffer with Enhanced Loading Protocol (this requires scale-up according to number of plates to be screened) • 12 μl of solution A (1 mM CCF4-AM in Dry DMSO) was added to 60 μl of solution B (100 mg/ml Pluronic-F127 in DMSO+0.1% Acetic Acid) and vortexed. • The resulting solution was added to […] of solution C (24% w/w PEG400, 18% TR40 v/v in water). • 75 μl of solution D was added (200 mM probenecid in 200 mM NaOH). • 10 μl of 6× Loading Buffer was added to all wells and incubated for 1.5 hrs-2 hrs at room temperature in the dark. • The plates were read using an LJL Analyst, Excitation 405 nm, Emission 450 nm and 530 nm, gain optimal, lagtime 0.40 μs integration, 4 flashes, bottom reading.

Ki: 5.4 nM
SMILES: COc1ccc(-n2c(C)nnc2-c2cnc(-c3ccc(F)cc3Cl)cn2)cn1 [Example 1, 2-(2-Chloro-4-fluoro-phenyl)-5-[4-(6-methoxy-pyridin-3-yl)-5-methyl-4H-[1,2,4]triazol-3-yl]-pyrazine]

From US7618972B2, “Substituted triazole derivatives as oxytocin antagonists” (Pfizer Inc, priority 2005, dated 2009)
